Results reported in PMC9888480, “Carboranyl-1,8-naphthalimide intercalators induce lysosomal membrane permeabilization and ferroptosis in cancer cell lines” (Journal of Enzyme Inhibition and Medicinal Chemistry, 2023).

Tested on: relaxed pBR 322 plasmid DNA
Assay: DNA unwinding assay, relaxed plasmid as substrate
Type: binding
Details: 10 µM, in the presence of Topo I
From the text: Compounds that are able to intercalate into DNA or bind in the groove are involved in the local unwinding of the DNA, leading to a decrease in the twist number and an increase in the writhe number of the previously relaxed plasmid DNA used in the assay, resulting in a positively supercoiled DNA. If this DNA is then nicked by a topoisomerase, the enzyme will remove supercoils and relax the DNA, followed by religation. Upon removal of the compound and the enzyme by butanol extraction, the twist will increase, so the writhe will decrease, resulting in more negatively supercoiled DNA, which runs faster on agarose gel. […] This assay should be verified by performing a second reaction using a negatively supercoiled plasmid as a substrate to confirm that the compound is not simply acting as an inhibitor of the Topo I.
The DNA Unwinding Assay Kit (Cat no. DUKSR001) was purchased from Inspiralis (Norwich, UK). […] After extraction, the aqueous layer was mixed with an equal volume of STEB buffer (40% (w/v) sucrose, Tris–HCl (100 mM, pH 8), EDTA (1 mM), bromophenol blue (0.5 mg/ml)), extracted with chloroform/isoamyl alcohol (24:1), and analysed on 1% agarose gel in TAE buffer at 70 V for 2 h, followed by ethidium bromide staining. […]

4-[(6-[(1,7-Dicarba-closo-dodecaborane-1-yl)ethylamino]hexyl)amino]-3-nitro-N-[2-(N-pyrrolidinyl)ethyl]-1,8-naphthalimide [Compound 37]
DNA intercalation (supercoiled DNA fraction from relaxed plasmid): strongest DNA intercalator
